Measured values as given in paper PMC12670405, “Second-Generation AURKA-Targeting PROTACs: Structural Optimization toward in Vivo Degradation in Neuroblastoma” (Journal of Medicinal Chemistry, 2025).

Columns and labels:
Assay in all cases: KINOMEscan scanMAX
Assay type in all cases: binding
Details in all cases: read-out: Percent Control
PKAC-beta = target: T1, PKAC-beta (Homo sapiens, UniProt P22694)
T1 construct: purchased Eurofins Discovery (DiscoverX KINOMEscan scanMAX)
Procedure: (§1) The kinome-wide binding assay was performed by Eurofins Discovery using the scanMAX screening platform. More information can be found on the Eurofins Discovery Web site.

CDC2L1 = target: T2, CDC2L1 (Homo sapiens, UniProt P21127)
T2 construct: purchased Eurofins Discovery (DiscoverX KINOMEscan scanMAX)
Procedure: as §1

SRMS = target: T3, SRMS (Homo sapiens, UniProt Q9H3Y6)
T3 construct: purchased Eurofins Discovery (DiscoverX KINOMEscan scanMAX)
T3 sequence (Q9H3Y6 whole entry): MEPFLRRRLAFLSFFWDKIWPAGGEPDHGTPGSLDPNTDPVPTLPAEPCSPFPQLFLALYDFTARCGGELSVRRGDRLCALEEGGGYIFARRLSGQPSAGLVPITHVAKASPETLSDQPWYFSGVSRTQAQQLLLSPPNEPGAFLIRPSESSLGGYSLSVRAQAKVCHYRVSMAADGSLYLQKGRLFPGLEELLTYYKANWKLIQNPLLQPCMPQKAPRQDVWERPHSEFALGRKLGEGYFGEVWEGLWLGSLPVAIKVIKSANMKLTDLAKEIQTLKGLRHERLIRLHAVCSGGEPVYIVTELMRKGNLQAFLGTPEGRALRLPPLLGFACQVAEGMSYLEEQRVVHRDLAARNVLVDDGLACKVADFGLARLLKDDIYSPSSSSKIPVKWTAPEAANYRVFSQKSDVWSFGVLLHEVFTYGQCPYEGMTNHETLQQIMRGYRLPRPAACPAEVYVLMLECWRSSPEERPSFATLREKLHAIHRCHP
Procedure: as §1

KIT(A829P) = target: T4, KIT(A829P) (Homo sapiens, UniProt P10721, A829P)
T4 construct: purchased Eurofins Discovery (DiscoverX KINOMEscan scanMAX)
Procedure: as §1

CSF1R-autoinhibited = target: T5, CSF1R-autoinhibited (Homo sapiens, UniProt P07333)
T5 construct: purchased Eurofins Discovery (DiscoverX KINOMEscan scanMAX)
Procedure: as §1

PIK3CA(Q546K) = target: T6, PIK3CA(Q546K) (Homo sapiens, UniProt P42336, Q546K)
T6 construct: purchased Eurofins Discovery (DiscoverX KINOMEscan scanMAX)
Procedure: as §1

PHKG2 = target: T7, PHKG2 (Homo sapiens, UniProt P15735)
T7 construct: purchased Eurofins Discovery (DiscoverX KINOMEscan scanMAX)
T7 sequence (P15735 whole entry): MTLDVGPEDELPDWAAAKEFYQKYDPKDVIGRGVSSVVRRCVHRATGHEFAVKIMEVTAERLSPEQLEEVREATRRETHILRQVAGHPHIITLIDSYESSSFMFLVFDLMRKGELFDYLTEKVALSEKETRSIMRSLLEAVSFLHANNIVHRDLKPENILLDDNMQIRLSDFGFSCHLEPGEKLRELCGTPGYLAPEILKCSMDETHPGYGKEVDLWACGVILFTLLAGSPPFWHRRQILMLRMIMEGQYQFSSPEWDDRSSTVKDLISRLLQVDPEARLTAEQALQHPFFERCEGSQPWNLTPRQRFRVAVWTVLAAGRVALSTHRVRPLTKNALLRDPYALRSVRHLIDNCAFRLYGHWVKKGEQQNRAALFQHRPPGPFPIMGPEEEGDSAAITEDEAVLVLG
Procedure: as §1

PRKCE = target: T8, PRKCE (Homo sapiens, UniProt Q02156)
T8 construct: purchased Eurofins Discovery (DiscoverX KINOMEscan scanMAX)
T8 sequence (Q02156 whole entry): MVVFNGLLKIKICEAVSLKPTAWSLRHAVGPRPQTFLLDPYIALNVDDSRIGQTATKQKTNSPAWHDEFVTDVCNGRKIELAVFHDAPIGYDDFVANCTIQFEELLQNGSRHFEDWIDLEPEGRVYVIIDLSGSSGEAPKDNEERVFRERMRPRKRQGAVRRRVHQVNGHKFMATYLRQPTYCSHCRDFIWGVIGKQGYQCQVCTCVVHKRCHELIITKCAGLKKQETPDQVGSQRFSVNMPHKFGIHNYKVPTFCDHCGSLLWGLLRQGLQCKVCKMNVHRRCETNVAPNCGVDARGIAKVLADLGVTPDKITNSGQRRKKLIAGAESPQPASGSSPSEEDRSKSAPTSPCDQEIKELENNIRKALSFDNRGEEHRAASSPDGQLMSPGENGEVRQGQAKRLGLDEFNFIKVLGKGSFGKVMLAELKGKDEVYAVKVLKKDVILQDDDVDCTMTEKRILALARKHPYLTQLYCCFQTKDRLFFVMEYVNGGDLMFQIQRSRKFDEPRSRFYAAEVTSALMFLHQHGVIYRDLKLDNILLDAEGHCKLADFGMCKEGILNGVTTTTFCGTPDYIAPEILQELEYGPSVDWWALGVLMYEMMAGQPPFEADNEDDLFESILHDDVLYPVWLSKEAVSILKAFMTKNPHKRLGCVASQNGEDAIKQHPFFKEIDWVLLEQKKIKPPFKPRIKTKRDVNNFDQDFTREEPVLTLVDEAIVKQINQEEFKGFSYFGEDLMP
Procedure: as §1

WNK2 = target: T9, WNK2 (Homo sapiens, UniProt Q9Y3S1)
T9 construct: purchased Eurofins Discovery (DiscoverX KINOMEscan scanMAX)
Procedure: as §1

PLK2 = target: T10, PLK2 (Homo sapiens, UniProt Q9NYY3)
T10 construct: purchased Eurofins Discovery (DiscoverX KINOMEscan scanMAX)
Procedure: as §1

MELK = target: T11, MELK (Homo sapiens, UniProt Q14680)
T11 construct: purchased Eurofins Discovery (DiscoverX KINOMEscan scanMAX)
T11 sequence (Q14680 whole entry): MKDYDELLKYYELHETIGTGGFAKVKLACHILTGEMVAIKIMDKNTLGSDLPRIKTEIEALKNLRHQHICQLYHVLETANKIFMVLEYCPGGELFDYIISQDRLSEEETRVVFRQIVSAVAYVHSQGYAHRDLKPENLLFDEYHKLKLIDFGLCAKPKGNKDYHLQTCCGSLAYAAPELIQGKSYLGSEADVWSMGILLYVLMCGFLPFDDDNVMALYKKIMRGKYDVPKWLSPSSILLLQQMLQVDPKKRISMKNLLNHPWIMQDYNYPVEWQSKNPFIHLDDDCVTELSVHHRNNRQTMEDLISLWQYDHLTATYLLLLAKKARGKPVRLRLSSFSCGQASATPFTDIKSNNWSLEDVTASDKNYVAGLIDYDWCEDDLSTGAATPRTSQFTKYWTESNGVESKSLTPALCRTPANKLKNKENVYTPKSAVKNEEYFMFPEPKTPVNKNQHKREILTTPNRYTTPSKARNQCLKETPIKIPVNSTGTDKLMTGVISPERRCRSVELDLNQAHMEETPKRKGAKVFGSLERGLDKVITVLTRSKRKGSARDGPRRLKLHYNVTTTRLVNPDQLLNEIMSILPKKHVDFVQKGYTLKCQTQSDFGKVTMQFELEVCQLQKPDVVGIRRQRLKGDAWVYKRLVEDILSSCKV
Procedure: as §1

IRAK3 = target: T12, IRAK3 (Homo sapiens, UniProt Q9Y616)
T12 construct: purchased Eurofins Discovery (DiscoverX KINOMEscan scanMAX)
Procedure: as §1

PCTK3 = target: T13, PCTK3 (Homo sapiens, UniProt Q07002)
T13 construct: purchased Eurofins Discovery (DiscoverX KINOMEscan scanMAX)
Procedure: as §1

MAP4K4 = target: T14, MAP4K4 (Homo sapiens, UniProt O95819)
T14 construct: purchased Eurofins Discovery (DiscoverX KINOMEscan scanMAX)
T14 sequence (O95819 whole entry): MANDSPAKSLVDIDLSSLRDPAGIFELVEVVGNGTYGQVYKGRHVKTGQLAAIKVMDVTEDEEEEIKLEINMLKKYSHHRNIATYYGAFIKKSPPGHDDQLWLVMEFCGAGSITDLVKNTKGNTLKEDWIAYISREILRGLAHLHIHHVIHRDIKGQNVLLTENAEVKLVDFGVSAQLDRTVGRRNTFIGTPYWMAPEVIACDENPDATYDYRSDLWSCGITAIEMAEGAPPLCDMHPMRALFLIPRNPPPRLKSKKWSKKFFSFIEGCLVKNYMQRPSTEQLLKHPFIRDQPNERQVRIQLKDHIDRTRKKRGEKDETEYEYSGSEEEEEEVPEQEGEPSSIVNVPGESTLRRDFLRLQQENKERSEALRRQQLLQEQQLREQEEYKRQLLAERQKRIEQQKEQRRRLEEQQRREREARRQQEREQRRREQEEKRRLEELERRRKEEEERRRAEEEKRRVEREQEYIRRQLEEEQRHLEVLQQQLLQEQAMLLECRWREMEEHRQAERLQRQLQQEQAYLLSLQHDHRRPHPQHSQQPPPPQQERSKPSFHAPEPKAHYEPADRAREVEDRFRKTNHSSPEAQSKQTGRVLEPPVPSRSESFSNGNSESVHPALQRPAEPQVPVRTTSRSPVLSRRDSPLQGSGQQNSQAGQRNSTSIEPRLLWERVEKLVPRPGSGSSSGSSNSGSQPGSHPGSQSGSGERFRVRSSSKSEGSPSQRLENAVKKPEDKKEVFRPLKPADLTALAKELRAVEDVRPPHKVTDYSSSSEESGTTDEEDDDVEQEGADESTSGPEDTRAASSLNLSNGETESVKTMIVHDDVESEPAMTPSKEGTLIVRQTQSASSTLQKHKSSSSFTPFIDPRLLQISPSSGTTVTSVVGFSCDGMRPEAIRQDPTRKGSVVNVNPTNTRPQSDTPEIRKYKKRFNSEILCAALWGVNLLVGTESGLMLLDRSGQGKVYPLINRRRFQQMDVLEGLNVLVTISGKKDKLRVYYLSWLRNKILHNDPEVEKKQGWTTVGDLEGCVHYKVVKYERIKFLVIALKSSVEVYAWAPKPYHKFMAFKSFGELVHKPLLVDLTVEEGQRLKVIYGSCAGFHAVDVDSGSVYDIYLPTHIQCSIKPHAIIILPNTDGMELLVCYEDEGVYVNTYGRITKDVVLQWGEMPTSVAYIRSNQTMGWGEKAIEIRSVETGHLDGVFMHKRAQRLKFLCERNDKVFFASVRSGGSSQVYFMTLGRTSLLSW
Procedure: as §1

BMPR1A = target: T15, BMPR1A (Homo sapiens, UniProt P36894)
T15 construct: purchased Eurofins Discovery (DiscoverX KINOMEscan scanMAX)
Procedure: as §1

DYRK2 = target: T16, DYRK2 (Homo sapiens, UniProt Q92630)
T16 construct: purchased Eurofins Discovery (DiscoverX KINOMEscan scanMAX)
Procedure: as §1

CSNK1D = target: T17, CSNK1D (Homo sapiens, UniProt P48730)
T17 construct: purchased Eurofins Discovery (DiscoverX KINOMEscan scanMAX)
T17 sequence (P48730 whole entry): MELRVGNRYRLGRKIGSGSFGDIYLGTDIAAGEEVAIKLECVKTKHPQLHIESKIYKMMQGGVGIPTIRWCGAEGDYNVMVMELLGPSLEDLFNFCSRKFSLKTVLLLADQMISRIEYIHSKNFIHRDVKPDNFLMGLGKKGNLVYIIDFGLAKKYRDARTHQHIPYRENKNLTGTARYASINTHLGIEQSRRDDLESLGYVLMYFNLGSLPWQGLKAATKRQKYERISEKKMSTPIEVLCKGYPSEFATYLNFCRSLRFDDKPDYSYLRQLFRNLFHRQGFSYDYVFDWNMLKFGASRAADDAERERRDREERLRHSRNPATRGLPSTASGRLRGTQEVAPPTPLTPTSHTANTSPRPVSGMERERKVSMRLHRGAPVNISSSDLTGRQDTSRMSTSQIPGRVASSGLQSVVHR
Procedure: as §1

PIK3CD = target: T18, PIK3CD (Homo sapiens, UniProt O00329)
T18 construct: purchased Eurofins Discovery (DiscoverX KINOMEscan scanMAX)
Procedure: as §1

MYLK2 = target: T19, MYLK2 (Homo sapiens, UniProt Q9H1R3)
T19 construct: purchased Eurofins Discovery (DiscoverX KINOMEscan scanMAX)
Procedure: as §1

IKK-beta = target: T20, IKK-beta (Homo sapiens, UniProt O14920)
T20 construct: purchased Eurofins Discovery (DiscoverX KINOMEscan scanMAX)
Procedure: as §1

PRKCI = target: T21, PRKCI (Homo sapiens, UniProt P41743)
T21 construct: purchased Eurofins Discovery (DiscoverX KINOMEscan scanMAX)
Procedure: as §1

NEK9 = target: T22, NEK9 (Homo sapiens, UniProt Q8TD19)
T22 construct: purchased Eurofins Discovery (DiscoverX KINOMEscan scanMAX)
Procedure: as §1

DAPK2 = target: T23, DAPK2 (Homo sapiens, UniProt Q9UIK4)
T23 construct: purchased Eurofins Discovery (DiscoverX KINOMEscan scanMAX)
Procedure: as §1

EGFR(T790M) = target: T24, EGFR(T790M) (Homo sapiens, UniProt P00533, T790M)
T24 construct: purchased Eurofins Discovery (DiscoverX KINOMEscan scanMAX)
Procedure: as §1

PIK3CA(E545A) = target: T25, PIK3CA(E545A) (Homo sapiens, UniProt P42336, E545A)
T25 construct: purchased Eurofins Discovery (DiscoverX KINOMEscan scanMAX)
Procedure: as §1

CDKL2 = target: T26, CDKL2 (Homo sapiens, UniProt Q92772)
T26 construct: purchased Eurofins Discovery (DiscoverX KINOMEscan scanMAX)
Procedure: as §1

TYRO3 = target: T27, TYRO3 (Homo sapiens, UniProt Q06418)
T27 construct: purchased Eurofins Discovery (DiscoverX KINOMEscan scanMAX)
Procedure: as §1

PRKR = target: T28, PRKR (Homo sapiens, UniProt P19525)
T28 construct: purchased Eurofins Discovery (DiscoverX KINOMEscan scanMAX)
Procedure: as §1

RET(V804L) = target: T29, RET(V804L) (Homo sapiens, UniProt P07949, V804L)
T29 construct: purchased Eurofins Discovery (DiscoverX KINOMEscan scanMAX)
T29 sequence (P07949 29-1114 V804L): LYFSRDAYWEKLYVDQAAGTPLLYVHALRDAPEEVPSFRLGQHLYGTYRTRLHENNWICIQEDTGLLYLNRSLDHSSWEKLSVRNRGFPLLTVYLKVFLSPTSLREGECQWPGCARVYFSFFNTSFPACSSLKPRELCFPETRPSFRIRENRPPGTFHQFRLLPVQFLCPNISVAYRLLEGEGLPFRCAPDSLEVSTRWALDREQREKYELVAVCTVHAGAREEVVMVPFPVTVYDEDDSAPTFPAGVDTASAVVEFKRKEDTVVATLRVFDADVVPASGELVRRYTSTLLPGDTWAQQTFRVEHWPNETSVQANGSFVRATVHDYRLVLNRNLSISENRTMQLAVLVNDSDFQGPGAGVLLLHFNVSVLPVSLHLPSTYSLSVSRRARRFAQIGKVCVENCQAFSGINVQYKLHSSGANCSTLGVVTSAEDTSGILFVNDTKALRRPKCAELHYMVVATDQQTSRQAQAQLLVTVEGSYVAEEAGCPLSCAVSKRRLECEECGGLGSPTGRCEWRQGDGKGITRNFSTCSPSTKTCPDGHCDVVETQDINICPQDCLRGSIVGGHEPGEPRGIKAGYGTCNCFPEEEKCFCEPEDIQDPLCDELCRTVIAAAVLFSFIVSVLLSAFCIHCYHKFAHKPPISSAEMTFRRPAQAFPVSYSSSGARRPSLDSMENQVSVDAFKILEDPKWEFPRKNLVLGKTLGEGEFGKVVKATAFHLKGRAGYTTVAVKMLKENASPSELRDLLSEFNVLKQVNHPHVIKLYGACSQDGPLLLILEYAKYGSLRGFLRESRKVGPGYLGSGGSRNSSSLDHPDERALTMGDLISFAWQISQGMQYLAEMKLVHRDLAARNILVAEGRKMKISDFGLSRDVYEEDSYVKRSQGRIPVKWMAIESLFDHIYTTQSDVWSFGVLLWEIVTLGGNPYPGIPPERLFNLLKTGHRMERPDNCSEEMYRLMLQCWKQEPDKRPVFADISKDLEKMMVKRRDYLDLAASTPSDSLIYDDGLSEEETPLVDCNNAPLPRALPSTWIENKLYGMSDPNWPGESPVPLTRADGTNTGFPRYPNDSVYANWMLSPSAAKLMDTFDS
Procedure: as §1

ACVRL1 = target: T30, ACVRL1 (Homo sapiens, UniProt P37023)
T30 construct: purchased Eurofins Discovery (DiscoverX KINOMEscan scanMAX)
Procedure: as §1

YES = target: T31, YES (Homo sapiens, UniProt P07947)
T31 construct: purchased Eurofins Discovery (DiscoverX KINOMEscan scanMAX)
Procedure: as §1

CLK3 = target: T32, CLK3 (Homo sapiens, UniProt P49761)
T32 construct: purchased Eurofins Discovery (DiscoverX KINOMEscan scanMAX)
Procedure: as §1

PIP5K1C = target: T33, PIP5K1C (Homo sapiens, UniProt O60331)
T33 construct: purchased Eurofins Discovery (DiscoverX KINOMEscan scanMAX)
Procedure: as §1

CDC2L5 = target: T34, CDC2L5 (Homo sapiens, UniProt Q14004)
T34 construct: purchased Eurofins Discovery (DiscoverX KINOMEscan scanMAX)
Procedure: as §1

Structure (SMILES): Cc1cc(Nc2ccc(F)c(CC3(C(=O)N4CCC(F)(CN5CCN(c6ccc(N7CCC(=O)NC7=O)cn6)CC5)CC4)CCN(Cc4cccc(Cl)c4F)CC3)n2)n[nH]1 [SK5527]
- remaining binding at 0.1 µM (PKAC-beta; 100 nM): 90%
- remaining binding at 1 µM (PKAC-beta; 1000 nM): 100%
- remaining binding at 0.1 µM (CDC2L1; 100 nM): 98%
- remaining binding at 1 µM (CDC2L1; 1000 nM): 95%
- remaining binding at 0.1 µM (SRMS; 100 nM): 90%
- remaining binding at 1 µM (SRMS; 1000 nM): 82%
- remaining binding at 0.1 µM (KIT(A829P); 100 nM): 100%
- remaining binding at 1 µM (KIT(A829P); 1000 nM): 95%
- remaining binding at 0.1 µM (CSF1R-autoinhibited; 100 nM): 100%
- remaining binding at 1 µM (CSF1R-autoinhibited; 1000 nM): 100%
- remaining binding at 0.1 µM (PIK3CA(Q546K); 100 nM): 81%
- remaining binding at 1 µM (PIK3CA(Q546K); 1000 nM): 78%
- remaining binding at 0.1 µM (PHKG2; 100 nM): 95%
- remaining binding at 1 µM (PHKG2; 1000 nM): 97%
- remaining binding at 0.1 µM (PRKCE; 100 nM): 100%
- remaining binding at 1 µM (PRKCE; 1000 nM): 95%
- remaining binding at 0.1 µM (WNK2; 100 nM): 100%
- remaining binding at 1 µM (WNK2; 1000 nM): 100%
- remaining binding at 0.1 µM (PLK2; 100 nM): 100%
- remaining binding at 1 µM (PLK2; 1000 nM): 87%
- remaining binding at 0.1 µM (MELK; 100 nM): 99%
- remaining binding at 1 µM (MELK; 1000 nM): 87%
- remaining binding at 0.1 µM (IRAK3; 100 nM): 100%
- remaining binding at 1 µM (IRAK3; 1000 nM): 100%
- remaining binding at 0.1 µM (PCTK3; 100 nM): 91%
- remaining binding at 1 µM (PCTK3; 1000 nM): 84%
- remaining binding at 0.1 µM (MAP4K4; 100 nM): 86%
- remaining binding at 1 µM (MAP4K4; 1000 nM): 73%
- remaining binding at 0.1 µM (BMPR1A; 100 nM): 100%
- remaining binding at 1 µM (BMPR1A; 1000 nM): 100%
- remaining binding at 0.1 µM (DYRK2; 100 nM): 100%
- remaining binding at 1 µM (DYRK2; 1000 nM): 80%
- remaining binding at 0.1 µM (CSNK1D; 100 nM): 98%
- remaining binding at 1 µM (CSNK1D; 1000 nM): 91%
- remaining binding at 0.1 µM (PIK3CD; 100 nM): 69%
- remaining binding at 1 µM (PIK3CD; 1000 nM): 87%
- remaining binding at 0.1 µM (MYLK2; 100 nM): 100%
- remaining binding at 1 µM (MYLK2; 1000 nM): 100%
- remaining binding at 0.1 µM (IKK-beta; 100 nM): 100%
- remaining binding at 1 µM (IKK-beta; 1000 nM): 73%
- remaining binding at 0.1 µM (PRKCI; 100 nM): 92%
- remaining binding at 1 µM (PRKCI; 1000 nM): 76%
- remaining binding at 0.1 µM (NEK9; 100 nM): 78%
- remaining binding at 1 µM (NEK9; 1000 nM): 81%
- remaining binding at 0.1 µM (DAPK2; 100 nM): 100%
- remaining binding at 1 µM (DAPK2; 1000 nM): 93%
- remaining binding at 0.1 µM (EGFR(T790M); 100 nM): 92%
- remaining binding at 1 µM (EGFR(T790M); 1000 nM): 91%
- remaining binding at 0.1 µM (PIK3CA(E545A); 100 nM): 72%
- remaining binding at 1 µM (PIK3CA(E545A); 1000 nM): 100%
- remaining binding at 0.1 µM (CDKL2; 100 nM): 90%
- remaining binding at 1 µM (CDKL2; 1000 nM): 100%
- remaining binding at 0.1 µM (TYRO3; 100 nM): 80%
- remaining binding at 1 µM (TYRO3; 1000 nM): 89%
- remaining binding at 0.1 µM (PRKR; 100 nM): 100%
- remaining binding at 1 µM (PRKR; 1000 nM): 91%
- remaining binding at 0.1 µM (RET(V804L); 100 nM): 92%
- remaining binding at 1 µM (RET(V804L); 1000 nM): 38%
- remaining binding at 0.1 µM (ACVRL1; 100 nM): 100%
- remaining binding at 1 µM (ACVRL1; 1000 nM): 100%
- remaining binding at 0.1 µM (YES; 100 nM): 73%
- remaining binding at 1 µM (YES; 1000 nM): 70%
- remaining binding at 0.1 µM (CLK3; 100 nM): 100%
- remaining binding at 1 µM (CLK3; 1000 nM): 100%
- remaining binding at 0.1 µM (PIP5K1C; 100 nM): 100%
- remaining binding at 1 µM (PIP5K1C; 1000 nM): 94%
- remaining binding at 0.1 µM (CDC2L5; 100 nM): 82%
- remaining binding at 1 µM (CDC2L5; 1000 nM): 73%
